What was measured:
[1] = target: Serine/threonine-protein kinase PRP4 homolog (Homo sapiens) (UniProt Q13523); experiment: Inhibition of PRP4 (unknown origin) assessed as residual activity at 100 nM by KINOMEscan analysis relative to control
[2] = target: T1, Mitogen-activated protein kinase kinase kinase 3 (Homo sapiens) (UniProt Q99759); experiment: Inhibition of MAP3K3 (unknown origin) assessed as residual activity at 100 nM by KINOMEscan analysis relative to control
T1 sequence (whole entry): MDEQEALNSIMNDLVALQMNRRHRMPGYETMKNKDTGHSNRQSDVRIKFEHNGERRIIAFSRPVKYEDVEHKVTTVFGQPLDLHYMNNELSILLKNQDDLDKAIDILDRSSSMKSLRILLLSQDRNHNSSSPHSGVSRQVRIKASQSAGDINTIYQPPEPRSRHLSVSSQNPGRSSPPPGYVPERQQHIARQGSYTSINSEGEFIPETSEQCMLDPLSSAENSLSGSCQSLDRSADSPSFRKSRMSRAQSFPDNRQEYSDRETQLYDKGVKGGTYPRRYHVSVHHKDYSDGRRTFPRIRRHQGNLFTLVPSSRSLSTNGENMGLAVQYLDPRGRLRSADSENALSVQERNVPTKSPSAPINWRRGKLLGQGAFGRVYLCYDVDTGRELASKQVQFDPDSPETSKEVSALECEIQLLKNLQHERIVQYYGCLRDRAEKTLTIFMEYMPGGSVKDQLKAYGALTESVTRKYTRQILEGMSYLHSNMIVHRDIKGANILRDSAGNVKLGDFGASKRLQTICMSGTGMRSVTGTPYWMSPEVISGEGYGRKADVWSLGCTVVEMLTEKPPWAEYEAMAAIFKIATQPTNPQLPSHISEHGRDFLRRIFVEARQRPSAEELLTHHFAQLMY

[3] = target: Cyclin-dependent kinase 16 (Homo sapiens) (UniProt Q00536); experiment: Inhibition of PCTK1 (unknown origin) assessed as residual activity at 100 nM by KINOMEscan analysis relative to control
Sequence of Cyclin-dependent kinase 16 (Homo sapiens) (Q00536 whole entry): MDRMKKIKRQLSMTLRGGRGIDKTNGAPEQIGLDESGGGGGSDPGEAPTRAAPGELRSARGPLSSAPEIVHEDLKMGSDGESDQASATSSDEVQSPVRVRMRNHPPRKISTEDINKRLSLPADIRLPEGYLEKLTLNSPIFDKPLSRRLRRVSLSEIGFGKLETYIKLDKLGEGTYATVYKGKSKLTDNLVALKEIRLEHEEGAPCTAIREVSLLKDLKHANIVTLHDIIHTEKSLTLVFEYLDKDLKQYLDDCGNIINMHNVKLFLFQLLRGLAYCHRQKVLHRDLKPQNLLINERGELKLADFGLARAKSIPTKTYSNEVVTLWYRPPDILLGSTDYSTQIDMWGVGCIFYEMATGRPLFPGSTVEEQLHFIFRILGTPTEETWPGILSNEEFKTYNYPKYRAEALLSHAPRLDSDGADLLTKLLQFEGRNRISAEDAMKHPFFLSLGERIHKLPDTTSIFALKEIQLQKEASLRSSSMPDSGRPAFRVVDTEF

[4] = target: Serine/threonine-protein kinase Nek4 (Homo sapiens) (UniProt P51957); experiment: Inhibition of NEK4 (unknown origin) assessed as residual activity at 100 nM by KINOMEscan analysis relative to control
Sequence of Serine/threonine-protein kinase Nek4 (Homo sapiens) (P51957 whole entry, looked up): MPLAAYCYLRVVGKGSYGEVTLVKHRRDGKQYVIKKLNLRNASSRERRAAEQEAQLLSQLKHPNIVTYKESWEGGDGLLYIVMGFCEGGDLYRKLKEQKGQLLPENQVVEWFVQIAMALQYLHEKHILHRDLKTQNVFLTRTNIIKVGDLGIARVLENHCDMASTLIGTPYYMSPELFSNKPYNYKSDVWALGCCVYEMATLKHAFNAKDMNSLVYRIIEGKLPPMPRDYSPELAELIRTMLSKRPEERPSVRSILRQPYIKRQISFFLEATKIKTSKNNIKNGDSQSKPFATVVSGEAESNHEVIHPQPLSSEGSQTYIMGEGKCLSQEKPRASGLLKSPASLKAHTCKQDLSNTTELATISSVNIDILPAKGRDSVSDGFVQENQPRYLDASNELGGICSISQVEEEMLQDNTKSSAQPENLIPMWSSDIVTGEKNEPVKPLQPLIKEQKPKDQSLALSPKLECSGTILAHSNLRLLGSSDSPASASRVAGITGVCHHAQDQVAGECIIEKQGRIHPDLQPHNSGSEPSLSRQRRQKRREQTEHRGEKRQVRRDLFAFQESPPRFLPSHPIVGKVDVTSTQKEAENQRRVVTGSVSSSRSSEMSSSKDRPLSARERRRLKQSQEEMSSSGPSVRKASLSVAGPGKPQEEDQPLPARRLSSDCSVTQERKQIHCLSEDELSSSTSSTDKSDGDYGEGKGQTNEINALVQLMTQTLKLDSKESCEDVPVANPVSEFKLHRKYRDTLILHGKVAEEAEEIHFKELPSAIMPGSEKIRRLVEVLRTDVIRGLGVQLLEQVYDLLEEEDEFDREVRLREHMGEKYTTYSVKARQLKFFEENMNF

[5] = test system: Tyrosine-protein kinase ABL1 (Homo sapiens), P00519 [Q252H]; experiment: Inhibition of nonphosphorylated ABL1 Q252H mutant (unknown origin) assessed as residual activity at 100 nM by KINOMEscan analysis relative to control
[6] = target: Myosin-IIIa (Homo sapiens) (UniProt Q8NEV4); experiment: Inhibition of MYO3A (unknown origin) assessed as residual activity at 100 nM by KINOMEscan analysis relative to control
[7] = test system: Tyrosine-protein kinase ABL1 (Homo sapiens), P00519 [F317I]; experiment: Inhibition of phosphorylated ABL1 F317I mutant (unknown origin) assessed as residual activity at 100 nM by KINOMEscan analysis relative to control
[8] = target: Serine/threonine-protein kinase 35 (Homo sapiens) (UniProt Q8TDR2); experiment: Inhibition of STK35 (unknown origin) assessed as residual activity at 100 nM by KINOMEscan analysis relative to control
Sequence of Serine/threonine-protein kinase 35 (Homo sapiens) (Q8TDR2 whole entry): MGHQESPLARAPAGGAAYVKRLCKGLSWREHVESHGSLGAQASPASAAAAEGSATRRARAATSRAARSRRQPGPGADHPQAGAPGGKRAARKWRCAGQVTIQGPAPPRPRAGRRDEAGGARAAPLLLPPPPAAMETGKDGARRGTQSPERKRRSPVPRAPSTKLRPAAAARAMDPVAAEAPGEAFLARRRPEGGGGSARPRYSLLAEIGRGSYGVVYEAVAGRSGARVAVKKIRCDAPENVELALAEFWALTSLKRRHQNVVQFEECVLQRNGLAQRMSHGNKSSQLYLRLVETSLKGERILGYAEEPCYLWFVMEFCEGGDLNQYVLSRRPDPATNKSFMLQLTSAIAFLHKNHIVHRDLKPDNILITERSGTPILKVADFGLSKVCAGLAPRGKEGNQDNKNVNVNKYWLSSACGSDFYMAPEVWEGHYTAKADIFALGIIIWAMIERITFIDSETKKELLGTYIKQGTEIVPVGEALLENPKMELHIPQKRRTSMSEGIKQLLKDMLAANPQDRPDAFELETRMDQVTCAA

[9] = target: T2, SNF-related serine/threonine-protein kinase (Homo sapiens) (UniProt Q9NRH2); experiment: Inhibition of SNRK (unknown origin) assessed as residual activity at 100 nM by KINOMEscan analysis relative to control
T2 sequence (whole entry): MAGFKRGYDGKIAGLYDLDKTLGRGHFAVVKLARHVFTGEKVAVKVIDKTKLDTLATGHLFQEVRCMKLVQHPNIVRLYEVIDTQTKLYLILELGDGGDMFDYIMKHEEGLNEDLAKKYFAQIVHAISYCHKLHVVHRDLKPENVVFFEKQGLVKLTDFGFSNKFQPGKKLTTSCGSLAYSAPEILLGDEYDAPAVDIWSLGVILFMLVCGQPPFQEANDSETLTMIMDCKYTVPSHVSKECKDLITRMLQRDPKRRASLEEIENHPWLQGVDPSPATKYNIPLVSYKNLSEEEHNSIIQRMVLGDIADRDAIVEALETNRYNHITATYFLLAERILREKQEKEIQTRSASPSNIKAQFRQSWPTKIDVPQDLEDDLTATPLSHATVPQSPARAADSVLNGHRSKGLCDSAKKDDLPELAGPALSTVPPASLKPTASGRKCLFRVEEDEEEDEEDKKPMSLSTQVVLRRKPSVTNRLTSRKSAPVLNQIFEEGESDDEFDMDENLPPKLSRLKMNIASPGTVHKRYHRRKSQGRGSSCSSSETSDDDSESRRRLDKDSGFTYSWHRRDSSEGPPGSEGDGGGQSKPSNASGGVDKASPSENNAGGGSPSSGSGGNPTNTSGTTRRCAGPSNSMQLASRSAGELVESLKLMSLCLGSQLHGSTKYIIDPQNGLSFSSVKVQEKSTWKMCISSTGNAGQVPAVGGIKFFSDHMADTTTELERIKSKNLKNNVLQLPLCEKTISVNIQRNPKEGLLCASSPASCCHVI

[10] = target: T3, NUAK family SNF1-like kinase 1 (Homo sapiens) (UniProt O60285); experiment: Inhibition of ARK5 (unknown origin) assessed as residual activity at 100 nM by KINOMEscan analysis relative to control
T3 sequence (whole entry): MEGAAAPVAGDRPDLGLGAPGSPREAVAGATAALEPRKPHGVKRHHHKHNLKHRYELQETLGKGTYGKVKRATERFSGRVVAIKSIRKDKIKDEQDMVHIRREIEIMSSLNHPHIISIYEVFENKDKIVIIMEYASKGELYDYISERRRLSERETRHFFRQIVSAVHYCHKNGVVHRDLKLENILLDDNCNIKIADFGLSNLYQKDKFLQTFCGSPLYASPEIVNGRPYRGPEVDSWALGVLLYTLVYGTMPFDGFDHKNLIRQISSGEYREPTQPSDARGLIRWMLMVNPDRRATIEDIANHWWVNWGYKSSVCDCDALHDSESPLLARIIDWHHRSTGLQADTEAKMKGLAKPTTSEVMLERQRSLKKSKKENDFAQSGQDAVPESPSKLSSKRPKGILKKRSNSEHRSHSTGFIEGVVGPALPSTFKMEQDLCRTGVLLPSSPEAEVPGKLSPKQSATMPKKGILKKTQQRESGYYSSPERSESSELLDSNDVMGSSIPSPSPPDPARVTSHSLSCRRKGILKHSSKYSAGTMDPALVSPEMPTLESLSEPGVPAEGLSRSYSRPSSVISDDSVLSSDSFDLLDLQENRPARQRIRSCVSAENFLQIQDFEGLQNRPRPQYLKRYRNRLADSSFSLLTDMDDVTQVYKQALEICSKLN

[11] = target: Glycogen synthase kinase-3 alpha (Homo sapiens) (UniProt P49840); experiment: Inhibition of GSK3A (unknown origin) assessed as residual activity at 100 nM by KINOMEscan analysis relative to control
Sequence of Glycogen synthase kinase-3 alpha (Homo sapiens) (P49840 2-483 limits assumed): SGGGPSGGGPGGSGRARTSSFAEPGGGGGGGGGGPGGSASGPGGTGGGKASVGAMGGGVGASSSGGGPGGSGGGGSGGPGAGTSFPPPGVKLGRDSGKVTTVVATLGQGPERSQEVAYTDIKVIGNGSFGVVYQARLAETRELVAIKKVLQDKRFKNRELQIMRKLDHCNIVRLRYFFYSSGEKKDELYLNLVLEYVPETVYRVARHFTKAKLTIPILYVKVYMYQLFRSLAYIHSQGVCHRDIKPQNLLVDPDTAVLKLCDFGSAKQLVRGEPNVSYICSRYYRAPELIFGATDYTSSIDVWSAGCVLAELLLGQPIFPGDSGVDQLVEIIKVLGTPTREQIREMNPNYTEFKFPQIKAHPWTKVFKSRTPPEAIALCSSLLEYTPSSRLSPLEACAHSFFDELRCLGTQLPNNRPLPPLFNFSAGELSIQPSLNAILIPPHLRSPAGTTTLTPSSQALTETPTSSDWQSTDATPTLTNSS

[12] = target: Non-receptor tyrosine-protein kinase TYK2 (Homo sapiens) (UniProt P29597); experiment: Inhibition of TYK2 JH2 pseudokinase domain (unknown origin) assessed as residual activity at 100 nM by KINOMEscan analysis relative to control
Sequence of Non-receptor tyrosine-protein kinase TYK2 (Homo sapiens) (P29597 whole entry, the tested form may be a part): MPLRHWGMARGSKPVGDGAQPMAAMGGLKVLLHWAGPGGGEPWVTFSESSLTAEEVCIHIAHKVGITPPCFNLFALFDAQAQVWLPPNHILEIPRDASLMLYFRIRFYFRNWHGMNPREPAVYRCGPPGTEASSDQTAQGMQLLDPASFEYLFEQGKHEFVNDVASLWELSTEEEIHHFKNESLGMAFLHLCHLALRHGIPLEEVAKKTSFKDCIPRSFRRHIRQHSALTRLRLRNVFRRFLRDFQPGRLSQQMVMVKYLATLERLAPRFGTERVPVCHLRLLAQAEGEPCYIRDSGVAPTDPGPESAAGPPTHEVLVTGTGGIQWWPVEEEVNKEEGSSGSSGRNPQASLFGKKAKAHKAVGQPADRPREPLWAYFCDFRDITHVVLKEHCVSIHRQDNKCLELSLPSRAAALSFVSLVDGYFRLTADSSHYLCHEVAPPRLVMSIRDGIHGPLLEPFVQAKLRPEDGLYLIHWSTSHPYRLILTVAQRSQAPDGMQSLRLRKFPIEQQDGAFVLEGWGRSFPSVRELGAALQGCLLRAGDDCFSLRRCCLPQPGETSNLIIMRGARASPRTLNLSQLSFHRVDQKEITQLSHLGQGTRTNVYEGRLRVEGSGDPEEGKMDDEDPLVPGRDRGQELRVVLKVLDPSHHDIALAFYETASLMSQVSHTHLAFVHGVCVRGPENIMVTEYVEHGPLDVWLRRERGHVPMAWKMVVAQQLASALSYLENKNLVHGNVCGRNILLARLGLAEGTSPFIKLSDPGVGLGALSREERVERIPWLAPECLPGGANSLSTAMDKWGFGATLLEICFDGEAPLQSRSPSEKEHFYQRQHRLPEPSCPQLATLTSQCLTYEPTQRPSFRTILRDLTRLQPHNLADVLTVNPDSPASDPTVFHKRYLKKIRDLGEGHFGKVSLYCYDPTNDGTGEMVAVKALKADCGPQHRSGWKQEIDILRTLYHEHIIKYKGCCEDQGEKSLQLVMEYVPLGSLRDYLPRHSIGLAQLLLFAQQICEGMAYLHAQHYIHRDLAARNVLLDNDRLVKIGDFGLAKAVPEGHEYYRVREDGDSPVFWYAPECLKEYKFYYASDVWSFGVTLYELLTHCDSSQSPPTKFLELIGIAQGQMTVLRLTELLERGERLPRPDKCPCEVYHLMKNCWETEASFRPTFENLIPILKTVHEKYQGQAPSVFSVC

Sequence of Serine/threonine-protein kinase PRP4 homolog (Homo sapiens) (Q13523 whole entry): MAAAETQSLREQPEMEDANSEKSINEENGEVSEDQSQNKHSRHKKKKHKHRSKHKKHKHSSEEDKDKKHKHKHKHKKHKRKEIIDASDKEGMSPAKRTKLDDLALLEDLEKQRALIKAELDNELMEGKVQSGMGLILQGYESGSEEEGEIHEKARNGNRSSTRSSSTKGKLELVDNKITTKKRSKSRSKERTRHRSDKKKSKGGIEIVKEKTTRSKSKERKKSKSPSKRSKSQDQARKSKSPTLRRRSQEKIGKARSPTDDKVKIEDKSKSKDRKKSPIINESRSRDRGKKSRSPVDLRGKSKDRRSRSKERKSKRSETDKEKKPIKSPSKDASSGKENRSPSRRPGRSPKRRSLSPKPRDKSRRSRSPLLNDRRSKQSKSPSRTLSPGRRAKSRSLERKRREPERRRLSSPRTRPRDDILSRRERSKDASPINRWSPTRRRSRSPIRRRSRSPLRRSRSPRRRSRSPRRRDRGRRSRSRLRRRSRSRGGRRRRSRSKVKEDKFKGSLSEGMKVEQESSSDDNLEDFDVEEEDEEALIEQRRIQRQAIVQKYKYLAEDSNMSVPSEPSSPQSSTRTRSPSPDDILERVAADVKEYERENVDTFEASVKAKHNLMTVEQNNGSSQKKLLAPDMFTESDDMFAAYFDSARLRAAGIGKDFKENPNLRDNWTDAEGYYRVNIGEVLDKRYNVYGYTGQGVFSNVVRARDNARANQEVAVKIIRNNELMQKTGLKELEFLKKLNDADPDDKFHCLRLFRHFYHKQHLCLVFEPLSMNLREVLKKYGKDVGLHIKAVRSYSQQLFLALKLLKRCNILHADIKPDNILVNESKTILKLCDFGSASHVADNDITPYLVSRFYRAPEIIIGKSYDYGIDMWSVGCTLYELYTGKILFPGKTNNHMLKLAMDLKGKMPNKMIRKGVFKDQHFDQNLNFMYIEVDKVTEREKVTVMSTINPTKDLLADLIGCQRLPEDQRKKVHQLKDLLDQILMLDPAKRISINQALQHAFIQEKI

COc1cc2ncnc(N[C@H](C)c3cccc4ccccc34)c2cc1OC showed an Activity [1] of 95%, an Activity [2] of 90% and an Activity [3] of 96%. The Activity [4] was 72%, the Activity [5] was 100% and the Activity [6] was 100%. For the same molecule, the Activity [7] was 91%, the Activity [8] was 98% and the Activity [9] was 74%. The Activity [10] was 87%, the Activity [11] was 75% and the Activity [12] was 100%.

Reference: ChEMBL document CHEMBL5678818, “Discovery of potent SOS1 inhibitors that block RAS activation via disruption of the RAS-SOS1 interaction” (Proc Natl Acad Sci U S A, 2019)
